According to patent US11198713B2, “Agents modulating beta-catenin functions and methods thereof” (FOG PHARMACEUTICALS, INC., priority 2017, dated 2021):
pEC50: −log10 of the molar value.

What follows are molecules tested against T1, full-length beta-catenin (Axin site) (Homo sapiens, UniProt P35222) (assay: Competition fluorescence polarization assay (Axin site probe)). Settings: competition fluorescence polarization, Table 2; read-out: in vitro FP EC50.
T1 construct: 15 nM full-length beta-catenin, 20 nM FITC labeled peptide in buffer
T1 sequence (P35222 1-781): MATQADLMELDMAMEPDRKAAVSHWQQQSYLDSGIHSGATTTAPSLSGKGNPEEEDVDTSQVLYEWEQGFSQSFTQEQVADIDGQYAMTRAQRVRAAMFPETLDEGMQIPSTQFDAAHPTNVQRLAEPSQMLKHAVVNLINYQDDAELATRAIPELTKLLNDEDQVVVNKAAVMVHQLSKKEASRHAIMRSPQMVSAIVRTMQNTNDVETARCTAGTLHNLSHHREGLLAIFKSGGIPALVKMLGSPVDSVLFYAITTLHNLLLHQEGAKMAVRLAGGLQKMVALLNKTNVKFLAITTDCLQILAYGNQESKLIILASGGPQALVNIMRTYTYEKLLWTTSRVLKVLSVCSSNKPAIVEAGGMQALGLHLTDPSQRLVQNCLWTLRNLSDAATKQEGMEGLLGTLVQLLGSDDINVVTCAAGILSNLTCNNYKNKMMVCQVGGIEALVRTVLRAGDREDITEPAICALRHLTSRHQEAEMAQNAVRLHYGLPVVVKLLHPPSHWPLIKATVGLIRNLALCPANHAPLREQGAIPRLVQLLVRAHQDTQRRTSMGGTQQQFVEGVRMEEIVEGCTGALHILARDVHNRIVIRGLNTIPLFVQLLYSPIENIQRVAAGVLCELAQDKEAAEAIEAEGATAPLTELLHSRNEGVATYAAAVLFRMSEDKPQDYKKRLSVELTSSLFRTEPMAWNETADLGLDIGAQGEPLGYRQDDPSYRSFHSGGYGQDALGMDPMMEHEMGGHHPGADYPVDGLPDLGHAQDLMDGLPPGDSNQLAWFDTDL
Assay type: binding
Protocol: FIG. 1. […] Peptide solutions were prepared in buffer (50 mM Tris pH 8.0, 250 mM NaCl, 2% glycerol, 0.5 mM EDTA, 0.02% w/v sodium azide) using a 3-fold serial dilution from 5 μM. Probe solution (15 nM full-length 13-Catenin, 20 nM FITC labeled peptide (FITC-PEG1-PQ-S5-ILD-S5-HVRRVWR (SEQ ID NO: 1) (hydrocarbon staple formed by two S5 via olefin metathesis)) in buffer) was prepared and incubated for 5 minutes, then 40 μL per well plated in a black polystyrene 384-well plate (Corning). Equal volume of the titrated peptide was added to the plate and incubated protected from light for 15 minutes prior to read. Reads were performed on a Spectramax M5 (Molecular Devices) in duplicate.
FIG. 7. […] BCL9 Competition FP assay: Peptide solutions were prepared in buffer (50 mM Tris pH 8.0, 250 mM NaCl, 2% glycerol, 0.5 mM EDTA, 0.02% w/v sodium azide) using a 3-fold serial dilution from 10 μM. Probe solution (250 nM full-length beta-catenin, 20 nM 5FAM labeled peptide in buffer) was prepared and 40 μL per well plated in a black polystyrene 384-well plate (Corning). Equal volume of the titrated peptide was added to the plate and incubated protected from light for 15 minutes prior to read. Reads were performed on a Spectramax M5 (Molecular Devices) in duplicate. Probe: Ac-[…]nLeu-Leu-2NapA-bala-bala-Lys5FAM-NH2 (SEQ ID NO: 2) (from Biochemistry, 2009, 48 (40), pp 9534-9541). Axin Competition FP assay: Peptide solutions were prepared in buffer (50 mM Tris pH 8.0, 250 mM NaCl, 2% glycerol, 0.5 mM EDTA, 0.02% w/v sodium azide) using a 3-fold serial dilution from 5 μM. Probe solution (15 nM full-length beta-catenin, 20 nM FITC labeled peptide in buffer) was prepared and incubated for 5 minutes, then 40 μL per well plated in a black polystyrene 384-well plate (Corning). Equal volume of the titrated peptide was added to the plate and incubated protected from light for 15 minutes prior to read. Reads were performed on a Spectramax M5 (Molecular Devices) in duplicate. Probe: FITC-StAx-33 from Grossmann et al. PNAS 109 17942-17947.

Row | pEC50 | SMILES
1 | 6.30 to 7.00 | CC[C@H](C)[C@@H]1NC(=O)[C@](C)(NC(=O)[C@H](C)NC(=O)[C@@H]2CCCN2C(C)=O)CCCC=CCCCCCC[C@@](C)(C(=O)N[C@@H](CCCNC(=N)N)C(=O)N[C@H](C(=O)N[C@@H](Cc2c[nH]c3ccccc23)C(N)=O)C(C)C)NC(=O)[C@H](C(C)C)NC(=O)[C@H](Cc2c[nH]cn2)NC(=O)[C@H](C)NC(=O)[C@H](CC(=O)O)NC(=O)[C@H](CC(C)C)NC1=O (single isomer, unassigned) [FP0212s Isomer 2, Ac-P-A-R5-I-L-D-A-H-V-S8-R-V-W-NH2]
2 | 5.30 to 6.30 | CC[C@H](C)[C@@H]1NC(=O)[C@H](Cc2c[nH]cn2)NC(=O)[C@H](C)NC(=O)[C@H](CC(=O)O)NC(=O)[C@H](CC(C)C)NC(=O)[C@H]([C@@H](C)CC)NC(=O)[C@](C)(NC(=O)[C@H](C)NC(C)=O)CCCCCCC=CCOC(=O)N2CC[C@@](C(=O)N[C@@H](CCCNC(=N)N)C(=O)N[C@H](C(=O)N[C@@H](Cc3c[nH]c4ccccc34)C(N)=O)C(C)C)(C2)NC1=O (single isomer, unassigned) [FP0217c Isomer 1, Ac-AR8ILDAHIMBRVW (SEQ ID NO: 280)]
3 | > 7.00 | CC[C@H](C)[C@@H]1NC(=O)[C@H](Cc2c[nH]cn2)NC(=O)[C@H](C)NC(=O)[C@H](CC(=O)O)NC(=O)[C@H](CC(C)C)NC(=O)[C@H]([C@@H](C)CC)NC(=O)[C@](C)(NC(=O)[C@H](C)NC(C)=O)CCCCCCC=CCCC[C@@](C)(C(=O)N[C@@H](CCCNC(=N)N)C(=O)N[C@H](C(=O)N[C@@H](Cc2c[nH]c3ccccc23)C(N)=O)C(C)C)NC1=O (single isomer, unassigned) [FP0217s Isomer 1, Ac-A-R8-I-L-D-A-H-I-S5-R-V-W-NH2]
4 | > 7.00 | CC[C@H](C)[C@@H]1NC(=O)[C@H](Cc2c[nH]cn2)NC(=O)[C@H](C)NC(=O)[C@H](CC(=O)O)NC(=O)[C@H](CC(C)C)NC(=O)[C@H]([C@@H](C)CC)NC(=O)[C@](C)(NC(=O)[C@H](C)NC(C)=O)CCCCCCC=CCCC[C@@](C)(C(=O)N[C@@H](CCCNC(=N)N)C(=O)N[C@H](C(=O)N[C@@H](Cc2c[nH]c3ccccc23)C(N)=O)C(C)C)NC1=O (single isomer, unassigned) [FP0217s Isomer 2, Ac-A-R8-I-L-D-A-H-I-S5-R-V-W-NH2]
5 | 6.30 to 7.00 | CC[C@H](C)[C@@H]1NC(=O)[C@H](Cc2c[nH]cn2)NC(=O)[C@H](C)NC(=O)[C@H](CC(=O)O)NC(=O)[C@H](CC(C)C)NC(=O)[C@H]([C@@H](C)CC)NC(=O)[C@](C)(NC(=O)[C@H](C)NC(C)=O)CN(C)C(=O)OCC=CCCCCCC[C@@](C)(C(=O)N[C@@H](CCCNC(=N)N)C(=O)N[C@H](C(=O)N[C@@H](Cc2c[nH]c3ccccc23)C(N)=O)C(C)C)NC1=O (single isomer, unassigned) [FP0335c Isomer 1, Ac-A-ME-I-L-D-A-H-I-S8-R-V-W-NH2]
6 | > 7.00 | CC[C@H](C)[C@@H]1NC(=O)[C@H](Cc2c[nH]cn2)NC(=O)[C@H](C)NC(=O)[C@H](CC(=O)O)NC(=O)[C@H](CC(C)C)NC(=O)[C@H]([C@@H](C)CC)NC(=O)[C@](C)(NC(=O)[C@H](C)NC(C)=O)CN(C)C(=O)OCC=CCCCCCC[C@@](C)(C(=O)N[C@@H](CCCNC(=N)N)C(=O)N[C@H](C(=O)N[C@@H](Cc2c[nH]c3ccccc23)C(N)=O)C(C)C)NC1=O (single isomer, unassigned) [FP0335c Isomer 2, Ac-A-ME-I-L-D-A-H-I-S8-R-V-W-NH2]
7 | 5.30 to 6.30 | CC[C@H](C)[C@@H]1NC(=O)[C@H](Cc2c[nH]cn2)NC(=O)[C@H](C)NC(=O)[C@H](CC(=O)O)NC(=O)[C@H](CC(C)C)NC(=O)[C@H]([C@@H](C)CC)NC(=O)[C@](C)(NC(=O)[C@H](C)NC(C)=O)CCCCCCC=CCOC(=O)N2CC[C@@](C(=O)N[C@@H](Cc3cccc4ccccc34)C(=O)N[C@H](C(=O)N[C@@H](Cc3c[nH]c4ccccc34)C(N)=O)C(C)C)(C2)NC1=O (single isomer, unassigned) [FP0365c Isomer 1, Ac-A-R8-I-L-D-A-H-I-MB-1NapA-V-W-NH2]
8 | 5.30 to 6.30 | CC[C@H](C)[C@@H]1NC(=O)[C@H](Cc2c[nH]cn2)NC(=O)[C@H](C)NC(=O)[C@H](CC(=O)O)NC(=O)[C@H](CC(C)C)NC(=O)[C@H]([C@@H](C)CC)NC(=O)[C@](C)(NC(=O)[C@H](C)NC(C)=O)CCCCCCC=CCOC(=O)N2CC[C@@](C(=O)N[C@@H](Cc3cccc4ccccc34)C(=O)N[C@H](C(=O)N[C@@H](Cc3c[nH]c4ccccc34)C(N)=O)C(C)C)(C2)NC1=O (single isomer, unassigned) [FP0365c Isomer 2, Ac-A-R8-I-L-D-A-H-I-MB-1NapA-V-W-NH2]
9 | 6.30 to 7.00 | CC[C@H](C)[C@@H]1NC(=O)[C@H](Cc2c[nH]cn2)NC(=O)[C@H](C)NC(=O)[C@H](CC(=O)O)NC(=O)[C@H](CC(C)C)NC(=O)[C@H]([C@@H](C)CC)NC(=O)[C@](C)(NC(=O)[C@H](C)NC(C)=O)CCCCCCC=CCOC(=O)N2CC[C@@](C(=O)N[C@@H](Cc3cccc4ccccc34)C(=O)N[C@H](C(=O)N[C@@H](Cc3c[nH]c4ccccc34)C(N)=O)C(C)C)(C2)NC1=O (single isomer, unassigned) [FP0365c, Ac-A-R8-I-L-D-A-H-I-MB-1NapA-V-W-NH2]
10 | > 7.00 | CC[C@H](C)[C@@H]1NC(=O)[C@H](Cc2c[nH]cn2)NC(=O)[C@H](C)NC(=O)[C@H](CC(=O)O)NC(=O)[C@H](CC(C)C)NC(=O)[C@H]([C@@H](C)CC)NC(=O)[C@](C)(NC(=O)[C@H](C)NC(C)=O)CCCCC=CCOC(=O)N(C)CC[C@@](C)(C(=O)N[C@@H](CCCNC(=N)N)C(=O)N[C@H](C(=O)N[C@@H](Cc2c[nH]c3ccccc23)C(N)=O)C(C)C)NC1=O (single isomer, unassigned) [FP0502c Isomer 1, Ac-A-R6-I-L-D-A-H-I-MF-R-V-W-NH2]
11 | 6.30 to 7.00 | CC[C@H](C)[C@@H]1NC(=O)[C@H](Cc2c[nH]cn2)NC(=O)[C@H](C)NC(=O)[C@H](CC(=O)O)NC(=O)[C@H](CC(C)C)NC(=O)[C@H]([C@@H](C)CC)NC(=O)[C@](C)(NC(=O)[C@H](C)NC(C)=O)CCCCC=CCOC(=O)N(C)CC[C@@](C)(C(=O)N[C@@H](CCCNC(=N)N)C(=O)N[C@H](C(=O)N[C@@H](Cc2c[nH]c3ccccc23)C(N)=O)C(C)C)NC1=O (single isomer, unassigned) [FP0502c Isomer 2, Ac-A-R6-I-L-D-A-H-I-MF-R-V-W-NH2]
12 | 6.30 to 7.00 | CC[C@H](C)[C@@H]1NC(=O)[C@H](Cc2c[nH]cn2)NC(=O)[C@H](C)NC(=O)[C@H](CC(=O)O)NC(=O)[C@H](CC(C)C)NC(=O)[C@H]([C@@H](C)CC)NC(=O)[C@](C)(NC(=O)[C@H](C)NC(C)=O)CCCN(C)C(=O)OCC=CCCC[C@@](C)(C(=O)N[C@@H](CCCNC(=N)N)C(=O)N[C@H](C(=O)N[C@@H](Cc2c[nH]c3ccccc23)C(N)=O)C(C)C)NC1=O (single isomer, unassigned) [FP0506c Isomer 1, Ac-A-MI-I-L-D-A-H-I-S5-R-V-W-NH2]
13 | > 7.00 | CC[C@H](C)[C@@H]1NC(=O)[C@H](Cc2c[nH]cn2)NC(=O)[C@H](C)NC(=O)[C@H](CC(=O)O)NC(=O)[C@H](CC(C)C)NC(=O)[C@H]([C@@H](C)CC)NC(=O)[C@](C)(NC(=O)[C@H](C)NC(C)=O)CCCN(C)C(=O)OCC=CCCC[C@@](C)(C(=O)N[C@@H](CCCNC(=N)N)C(=O)N[C@H](C(=O)N[C@@H](Cc2c[nH]c3ccccc23)C(N)=O)C(C)C)NC1=O (single isomer, unassigned) [FP0506c Isomer 2, Ac-A-MI-I-L-D-A-H-I-S5-R-V-W-NH2]
